Measurements reported in patent US6737383B1, “Herbicidal oxadiazolidines” (priority 1999, dated 2004).

Columns and labels:
bedstraw = experiment: Test B pre/postemergence bedstraw; format: in vivo, Galium aparine
How it was run: (§1)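 Response is a visual 0-to-10 score relative to untreated plants, where 0 means no effect and 10 means complete control, taken twelve to sixteen days after application. Treatments went onto soil at planting and onto foliage of 1- to 4-leaf plants, using a surfactant-containing non-phytotoxic solvent.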

blackgrass = experiment: Test B pre/postemergence blackgrass; format: in vivo, Alopecurus myosuroides
How it was run: as §1

surinam grass = experiment: Test B pre/postemergence surinam grass; format: in vivo, Brachiaria decumbens
How it was run: as §1

corn = experiment: Test B pre/postemergence corn; format: in vivo, Zea mays
How it was run: as §1

crabgrass = experiment: Test B pre/postemergence crabgrass; format: in vivo, Digitaria sanguinalis
How it was run: as §1

giant foxtail = experiment: Test B pre/postemergence giant foxtail; format: in vivo, Setaria faberii
How it was run: as §1

morningglory = experiment: Test B pre/postemergence morningglory; format: in vivo, Ipomoea hederacea
How it was run: as §1

pigweed = experiment: Test B pre/postemergence pigweed; format: in vivo, Amaranthus retroflexus
How it was run: as §1

rape = experiment: Test B pre/postemergence rape; format: in vivo, Brassica napus
How it was run: as §1

soybean = experiment: Test B pre/postemergence soybean; format: in vivo, Glycine max
How it was run: as §1

velvetleaf = experiment: Test B pre/postemergence velvetleaf; format: in vivo, Abutilon theophrasti
How it was run: as §1

wheat = experiment: Test B pre/postemergence wheat; format: in vivo, Triticum aestivum
How it was run: as §1

wild oat = experiment: Test B pre/postemergence wild oat; format: in vivo, Avena fatua
How it was run: as §1

purple nutsedge = experiment: Test B pre/postemergence purple nutsedge; format: in vivo, Cyperus rotundus
How it was run: as §1

rice = experiment: Test B flood test rice; format: in vivo, Oryza sativa
How it was run: (§2)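 Flood test on plants grown to the 2-leaf stage; treated plants kept in greenhouse twelve to sixteen days, then visually rated against controls on a 0 (no effect) to 10 (complete control) scale.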

duck salad = experiment: Test B flood test duck salad; format: in vivo, Heteranthera limosa
How it was run: as §2

[1] = Postemergence, Rate 62 g/ha, scale 0 to 10, 0 is no effect, 10 is complete control
[2] = Postemergence, Rate 250 g/ha, scale 0 to 10, 0 no effect, 10 complete control
[3] = Preemergence, Rate 31 g/ha, visual rating, scale 0 to 10 (0 no effect, 10 complete control)
[4] = Preemergence, Rate 62 g/ha, scale 0 to 10, 0 is no effect, 10 is complete control
[5] = Preemergence, Rate 125 g/ha, scale 0 to 10 (0 no effect, 10 complete control)
[6] = Preemergence, Rate 250 g/ha, scale of 0 to 10 where 0 is no effect and 10 is complete control
[7] = Rate 31 g/ha, Postemergence, scale 0 to 10
[8] = Rate 125 g/ha, Postemergence, scale 0 to 10, 0 no effect, 10 complete control
[9] = Rate 125 g/ha, Postemergence section (flood test species), scale 0 to 10, 0 no effect, 10 complete control
[10] = Rate 500 g/ha, Postemergence section of Table B, 0 to 10 scale (0 no effect, 10 complete control)
[11] = flood test, listed under Postemergence, Rate 250 g/ha, scale 0 to 10, 0 no effect, 10 complete control

## CCN(C(=O)n1oc(=O)n(-c2ccccc2OC)c1=O)C1CCCCC1 [Compound 29]
bedstraw; [1]
  Bedstraw plant response rating: 0
bedstraw; [2]
  Bedstraw plant response rating: 0
bedstraw; [3]
  Bedstraw plant response rating: 0
bedstraw; [4]
  Plant response rating, Bedstraw: 0
bedstraw; [5]
  Plant response rating, Bedstraw: 0
bedstraw; [6]
  Plant response rating, Bedstraw: 0
bedstraw; [7]
  Bedstraw plant response rating: 0
bedstraw; [8]
  Bedstraw plant response rating: 0
blackgrass; [1]
  Blackgrass plant response rating: 0
blackgrass; [2]
  Blackgrass plant response rating: 0
blackgrass; [3]
  Blackgrass plant response rating: 0
blackgrass; [4]
  Plant response rating, Blackgrass: 0
blackgrass; [5]
  Plant response rating, Blackgrass: 0
blackgrass; [6]
  Plant response rating, Blackgrass: 2
blackgrass; [7]
  Blackgrass plant response rating: 0
blackgrass; [8]
  Blackgrass plant response rating: 0
Surinam grass; [1]
  B. signalgrass plant response rating: 0
Surinam grass; [2]
  B. signalgrass plant response rating: 0
Surinam grass; [3]
  B. signalgrass plant response rating: 0
Surinam grass; [4]
  Plant response rating, B. signalgrass: 0
Surinam grass; [5]
  Plant response rating, B. signalgrass: 0
Surinam grass; [6]
  Plant response rating, B. signalgrass: 0
Surinam grass; [7]
  B. signalgrass plant response rating: 0
Surinam grass; [8]
  B. signalgrass plant response rating: 0
corn; [1]
  Corn plant response rating: 0
corn; [2]
  Corn plant response rating: 0
corn; [3]
  Corn plant response rating: 0
corn; [4]
  Plant response rating, Corn: 0
corn; [5]
  Plant response rating, Corn: 0
corn; [6]
  Plant response rating, Corn: 0
corn; [7]
  Corn plant response rating: 0
corn; [8]
  Corn plant response rating: 0
crabgrass; [1]
  Crabgrass plant response rating: 0
crabgrass; [2]
  Crabgrass plant response rating: 0
crabgrass; [3]
  Crabgrass plant response rating: 0
crabgrass; [4]
  Plant response rating, Crabgrass: 3
crabgrass; [5]
  Plant response rating, Crabgrass: 4
crabgrass; [6]
  Plant response rating, Crabgrass: 7
crabgrass; [7]
  Crabgrass plant response rating: 0
crabgrass; [8]
  Crabgrass plant response rating: 0
Giant foxtail; [1]
  Giant foxtail plant response rating: 0
Giant foxtail; [2]
  Giant foxtail plant response rating: 0
Giant foxtail; [3]
  Giant foxtail plant response rating: 0
Giant foxtail; [4]
  Plant response rating, Giant foxtail: 0
Giant foxtail; [5]
  Plant response rating, Giant foxtail: 1
Giant foxtail; [6]
  Plant response rating, Giant foxtail: 3
Giant foxtail; [7]
  Giant foxtail plant response rating: 0
Giant foxtail; [8]
  Giant foxtail plant response rating: 0
morningglory; [1]
  Morningglory plant response rating: 0
morningglory; [2]
  Morningglory plant response rating: 0
morningglory; [3]
  Morningglory plant response rating: 0
morningglory; [4]
  Plant response rating, Morningglory: 0
morningglory; [5]
  Plant response rating, Morningglory: 0
morningglory; [6]
  Plant response rating, Morningglory: 0
morningglory; [7]
  Morningglory plant response rating: 0
morningglory; [8]
  Morningglory plant response rating: 0
pigweed; [1]
  Redroot pigweed plant response rating: 0
pigweed; [2]
  Redroot pigweed plant response rating: 0
pigweed; [3]
  Redroot pigweed plant response rating: 0
pigweed; [4]
  Plant response rating, Redroot pigweed: 0
pigweed; [5]
  Plant response rating, Redroot pigweed: 0
pigweed; [6]
  Plant response rating, Redroot pigweed: 5
pigweed; [7]
  Redroot pigweed plant response rating: 0
pigweed; [8]
  Redroot pigweed plant response rating: 0
rape; [1]
  Rape plant response rating: 0
rape; [2]
  Rape plant response rating: 0
rape; [3]
  Rape plant response rating: 0
rape; [4]
  Plant response rating, Rape: 0
rape; [5]
  Plant response rating, Rape: 0
rape; [6]
  Plant response rating, Rape: 0
rape; [7]
  Rape plant response rating: 0
rape; [8]
  Rape plant response rating: 0
soybean; [1]
  Soybean plant response rating: 2
soybean; [2]
  Soybean plant response rating: 2
soybean; [3]
  Soybean plant response rating: 0
soybean; [4]
  Plant response rating, Soybean: 0
soybean; [5]
  Plant response rating, Soybean: 0
soybean; [6]
  Plant response rating, Soybean: 0
soybean; [8]
  Soybean plant response rating: 2
velvetleaf; [1]
  Velvetleaf plant response rating: 0
velvetleaf; [2]
  Velvetleaf plant response rating: 0
velvetleaf; [3]
  Velvetleaf plant response rating: 0
velvetleaf; [4]
  Plant response rating, Velvetleaf: 0
velvetleaf; [5]
  Plant response rating, Velvetleaf: 0
velvetleaf; [6]
  Plant response rating, Velvetleaf: 0
velvetleaf; [8]
  Velvetleaf plant response rating: 0
wheat; [1]
  Wheat plant response rating: 0
wheat; [2]
  Wheat plant response rating: 0
wheat; [3]
  Wheat plant response rating: 0
wheat; [4]
  Plant response rating, Wheat: 0
wheat; [5]
  Plant response rating, Wheat: 0
wheat; [6]
  Plant response rating, Wheat: 0
wheat; [8]
  Wheat plant response rating: 0
Wild oat; [1]
  Wild oats plant response rating: 0
Wild oat; [2]
  Wild oats plant response rating: 0
Wild oat; [3]
  Wild oats plant response rating: 0
Wild oat; [5]
  Plant response rating, Wild oats: 0
Wild oat; [6]
  Plant response rating, Wild oats: 0
Wild oat; [8]
  Wild oats plant response rating: 0
Purple nutsedge; [1]
  Nutsedge plant response rating: 0
Purple nutsedge; [2]
  Nutsedge plant response rating: 0
Purple nutsedge; [3]
  Nutsedge plant response rating: 0
Purple nutsedge; [4]
  Plant response rating, Nutsedge: 0
Purple nutsedge; [5]
  Plant response rating, Nutsedge: 0
Purple nutsedge; [6]
  Plant response rating, Nutsedge: 0
Purple nutsedge; [7]
  Nutsedge plant response rating: 0
Purple nutsedge; [8]
  Nutsedge plant response rating: 0
rice; [1]
  Rice plant response rating: 0
rice; [9]
  Rice plant response rating: 0
rice; [10]
  Rice plant response rating: 0
rice; [11]
  Rice plant response rating: 0
Duck salad; [1]
  Ducksalad plant response rating: 0
Duck salad; [9]
  Ducksalad plant response rating: 0
Duck salad; [10]
  Ducksalad plant response rating: 0
Duck salad; [11]
  Ducksalad plant response rating: 0
